Consider ten molecules from PubChem BioAssay (NCI).

Assay in all cases: DTP human tumour cell line panel, 48 h
For assay [1], the system named is HS 578T breast.
The subject of assay [2] is MDA-MB-231 breast.
Assay [3] deals with NCI-H23 lung.
Assay [4] has as its system OVCAR-3 ovarian.
Assay [5] deals with RPMI-8226 leukemia.
The test system of assay [6] is RXF 393 renal.
For assay [7], the system named is T-47D breast.
In assay [8] the test system is UO-31 renal.

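Values below derive from 48-hour exposures of cells grown in 96-well plates, with endpoints linearly interpolated between the two concentrations bracketing the appropriate inhibition level. At the GI50, growth is halved. At the TGI there is no net growth.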

Usually GI50 stands for the concentration giving 50% growth inhibition. As usually defined, the TGI is the concentration giving total growth inhibition. A high value points to less potent growth arrest.

For the molecule `COc1ccc(C(=O)N/N=C/c2ccc(O)cc2O)cc1Nc1ccnc(C(F)(F)F)c1`, the GI50 was 1.01 µM in assay [1]; 1.71 µM in assay [2]; 2.39 µM in assay [3]; 0.317 µM in assay [4]; 1.16 µM in assay [5]; 3.3 µM in assay [6]. Also, the GI50 in assay [7] was 0.688 µM; in assay [8], 2.64 µM. Moreover, the TGI in assay [1] is 15.3 µM; in assay [2], > 84.7 µM; in assay [3], 20.3 µM; in assay [4], 17.8 µM; in assay [5] it was 30.8 µM; in assay [6], 15.7 µM. Further, the total growth inhibition concentration (TGI) in assay [7] is 15 µM; in assay [8], > 63.8 µM.

Take `C[C@@]12CCC[C@@](C)(C(=O)O)C1CC[C@@]13CC(=O)[C@@](CO)(CCC12)C3` (some centres undefined): the GI50 in assay [1], in assay [2], in assay [3], in assay [4], in assay [5] and in assay [6] was > 100 µM in each case. In addition, the GI50 in assay [7] and in assay [8] was > 100 µM in each case. The TGI in assay [1], in assay [2], in assay [3], in assay [4], in assay [5] and in assay [6] was > 100 µM in each case. The TGI in assay [7] and in assay [8] was > 100 µM throughout.

Take `CCCCC#Cc1cccc(=O)o1`: the GI50 in assay [1] was > 100 µM; in assay [2], 6.43 µM; in assay [3], 8.98 µM; in assay [4], 5.23 µM; in assay [5], 2.03 µM; in assay [6] it was 44.3 µM. Moreover, the GI50 in assay [7] is 29.2 µM; in assay [8] it was 20.8 µM. Also, the total growth inhibition concentration (TGI) in assay [1] is > 100 µM; in assay [2], > 100 µM; in assay [3], > 100 µM; in assay [4] it was > 100 µM; in assay [5], 49.9 µM; in assay [6] it was > 100 µM. Further, the TGI in assay [7] and in assay [8] was > 100 µM throughout.

Consider `C=C1CO[C@@H]2C[C@@H]1CCC1(C)OC1CC/C(C)=C/CC[C@@]2(C)O` (some centres undefined), for which the GI50 in assay [1] is 27.1 µM; in assay [2], 14.9 µM; in assay [3] it was 27.8 µM; in assay [4], 16.9 µM; in assay [5] it was 16.2 µM; in assay [6] it was 23.6 µM. Moreover, the GI50 was 26.7 µM in assay [7] and 15.1 µM in assay [8]. In addition, the TGI was > 79.8 µM in assay [1]; 36.1 µM in assay [2]; > 73 µM in assay [3]; 33 µM in assay [4]; 44.5 µM in assay [5]; 64.1 µM in assay [6]. For the same molecule, the TGI in assay [7] was > 69.2 µM; in assay [8] it was 29.5 µM.

For the molecule `OC(C(=Nc1ccccc1)c1ccccc1)c1ccccc1` (centres undefined), the total growth inhibition concentration (TGI) in assay [1] was 7.11 µM; in assay [2], 39.3 µM; in assay [3] it was 40.4 µM; in assay [4], 14.3 µM; in assay [5], 71.1 µM; in assay [6] it was 26.1 µM. Further, the concentration for total growth inhibition (TGI) in assay [7] was > 100 µM; in assay [8], 39.8 µM.

`CC(C)[C@@H](CS(=O)(=O)C(C)C)N1C(=O)[C@@](C)(CC(=O)O)C[C@H](c2cccc(Cl)c2)[C@H]1c1ccc(Cl)cc1`: the GI50 in assay [1] is 17.1 µM; in assay [2], 18.3 µM; in assay [3], 17 µM; in assay [4] it was 12.4 µM; in assay [5], 15 µM; in assay [6], 19.5 µM. Further, the GI50 is 7.91 µM in assay [7] and 0.303 µM in assay [8]. Further, the concentration for total growth inhibition (TGI) in assay [1] is 72.1 µM; in assay [2] it was 39.2 µM; in assay [3] it was 56.8 µM; in assay [4], 33 µM; in assay [5], 53 µM; in assay [6], 67 µM. In addition, the concentration for total growth inhibition (TGI) was > 92 µM in assay [7] and 7.14 µM in assay [8].

For `Cc1ccc(-n2c(-c3ccc(Cl)cc3)cs/c2=N\NC(=O)COc2n[nH]c(=O)c3ccccc23)cc1`, the GI50 was 27.5 µM in assay [1]; 68.4 µM in assay [2]; 34.1 µM in assay [3]; > 100 µM in assay [4]; > 100 µM in assay [5]; 30.8 µM in assay [6]. In addition, the GI50 in assay [7] and in assay [8] was > 100 µM in each case. Moreover, the TGI in assay [1], in assay [2], in assay [3], in assay [4], in assay [5] and in assay [6] was > 100 µM throughout. Also, the total growth inhibition concentration (TGI) in assay [7] and in assay [8] was > 100 µM each time.

Take `CC(=O)OC1=C2C(CC3C4CC=C5CC(OC(C)=O)CCC5(C)C4CCC23C)C2C(=O)N(Cc3ccccc3)C(=O)C2C1` (centres undefined): the GI50 was 15.7 µM in assay [1]; 11.1 µM in assay [2]; 16.6 µM in assay [3]; 3.31 µM in assay [4]; 2.78 µM in assay [5]; 4.34 µM in assay [6]. The results for the GI50 in assay [7] and in assay [8] were 3.12 µM and 2.56 µM, respectively. The concentration for total growth inhibition (TGI) in assay [1] was > 100 µM; in assay [2], 72.7 µM; in assay [3], 74 µM; in assay [4], 12 µM; in assay [5], 9.82 µM; in assay [6], 45.3 µM. Also, the TGI in assay [7] is 20.1 µM; in assay [8], 8.39 µM.

As to `c1ccc2c(c1)ccc1c3ccccc3ccc21`, the GI50 in assay [1], in assay [2], in assay [3], in assay [4], in assay [5] and in assay [6] was > 50 µM in each case. In addition, the GI50 in assay [7] and in assay [8] was > 50 µM in each case. The TGI in assay [1], in assay [2], in assay [3], in assay [4], in assay [5] and in assay [6] was > 50 µM throughout. The TGI in assay [7] and in assay [8] was > 50 µM in each case.

With `CC(C)CC(=O)CC(O)C(Cl)(Cl)Cl` (centres undefined), the TGI in assay [1], in assay [2], in assay [3], in assay [4], in assay [5] and in assay [6] was > 100 µM each time. Further, the TGI in assay [7] and in assay [8] was > 100 µM each time.
